Assay results published in US20260083722A1, “BIFUNCTIONAL DEGRADERS COMPRISING ELECTROPHILIC PROTACS THAT ENGAGE DCAF1 AND PHARMACEUTICAL COMPOSITIONS COMPRISING THE SAME” (THE SCRIPPS RESEARCH INSTITUTE, priority 2022, published 2026).

How the values were obtained:
DCAF1-C1113A mutant = molecular target: T1, DCAF1-C1113A mutant (Homo sapiens, UniProt Q9Y4B6, C1113A); assay: gel-ABPP with recombinant DCAF1-C1113A mutant doped into HEK293T cell proteome; type: binding; settings: 1 h
T1 construct: the region used for recombinant protein studies marked in a bracket (a.a.'s 1046-1396); made in house
Description: FIG. 2 that azetidine acrylamides stereo- and site-selectively engage recombinant DCAF1_C1113. (A) Domain map of DCAF1 with the region used for recombinant protein studies marked in a bracket (a.a.'s 1046-1396) and C1113 highlighted in red. (B) Crystal structure of a DCAF1-Vpx complex (pdb: 5AJA). DCAF1 (a.a.'s 1046-1396) is shown in cyan, Vpx is shown in yellow, and C1113, which is located at the DCAF1-Vpx interface is shown in red. (C) Structures of alkyne-modified azetidine acrylamides MY-11A (5) and MY-11B (6). […] MY-11A/B labeling of proteins was visualized by CuAAC conjugation to an azide-rhodamine tag followed by SDS-PAGE and in-gel fluorescence scanning. […] Samples were treated with MY-1A/B for 2 h, followed by MY-11B (25 μM, 1 h) and analyzed as described in (D). Left, quantification of data presented as mean values±SEM from two independent experiments. […]
DCAF1 is a multi-domain substrate receptor for CRL4 ligases (FIG. 2A) that has diverse physiological and disease functions, including being co-opted by the HIV-2 virus to promote degradation of the antiviral host protein SAMHD1^27-28. […] After 1 h, we assessed MY-11A and MY-11B engagement of DCAF1 by copper-catalyzed azide-alkyne cycloaddition (CuAAC)^32 with an azide-rhodamine reporter tag followed by SDS-PAGE and in-gel fluorescence scanning^33. […]

HA-FKBP12 = molecular target: T2, HA-FKBP12 (Homo sapiens, UniProt P62942); assay: HA-FKBP12 abundance by Western blotting in transfected HEK293T cells; type: cell-based; settings: 5 μM, 1 h pre-treatment
T2 construct: expressed in transfected cells; host or cells: HEK293T
Description: (A) Left, western blots showing concentration-dependent effects of YT47R (upper) and YT41R (lower) on FKBP12 abundance in HEK293T cells expressing HA-FBKP12 with or without co-expression of FLAG-DCAF1. Right, quantification of HA-FKBP12 abundance in the indicated experimental groups. (B) Left, western blots showing effects of YT47R versus YT47S (upper) and YT41R versus YT41S (lower) on FKBP12 abundance in HEK293T cells co-expressing HA-FBKP12 and FLAG-DCAF1. Right, quantification of HA-FKBP12 abundance in the indicated experimental groups. (C) Western blots showing effects of YT47R (left blots) and YT41R (right blots) on FKBP12 abundance in HEK293T cells co-expressing HA-FBKP12 and either FLAG-DCAF1-WT or FLAG-DCAF1-C1113A mutant. Quantification of HA-FKBP12 abundance in the indicated experimental groups is shown in the adjacent bar graphs. For (A-C), FKBP12 abundance was determined at 24 h post-treatment with compounds, and data are mean values±SEM for three independent experiments. Statistical significance was calculated with unpaired two-tailed Student's t-tests comparing YT41R/YT47R- and DMSO-treated cells. ***P<0.001, ****P<0.0001.
(A) Left, western blots showing effects of proteasome (MG132) and Neddylation (MLN4924) inhibitors (1 h pre-treatment) on YT47R- and YT41R-dependent degradation of FKBP12 in HEK293T cells co-expressing HA-FBKP12 and FLAG-DCAF1. FKBP12 abundance was determined at 24 h post-treatment with YT47R or YT41R. Right, quantification of HA-FKBP12 abundance in the indicated experimental groups. (B) Left, western blots showing effects of the FKBP12 ligand SLF (20 μM) or DCAF1 ligand MY-11B (1 h pre-treatment with 20 μM SLF or 5 μM MY-11B) on YT47R- and YT41R-dependent degradation of FKBP12 in HEK293T cells co-expressing HA-FBKP12 and FLAG-DCAF1. FKBP12 abundance was determined at 24 h post-treatment with YT47R or YT41R. Right, quantification of HA-FKBP12 abundance in the indicated experimental groups. (C) Left, western blots showing effects of MY-11A or MY-11B (5 μM, 1 h pre-treatment) on YT47R- and YT41R-dependent degradation of FKBP12 in HEK293T cells co-expressing HA-FBKP12 and FLAG-DCAF1. FKBP12 abundance was determined at 24 h post-treatment with YT47R or YT41R. Right, quantification of HA-FKBP12 abundance in the indicated experimental groups. For (A-C), data are mean values±SEM for three-five independent experiments. Statistical significance was calculated with unpaired two-tailed Student's t-tests comparing YT41R/YT47R- and DMSO-treated cells. ****P<0.0001.
Figure S3. Concentration-dependent degradation of FKBP12 by DCAF1-directed electrophilic PROTACs. Top, western blots showing concentration-dependent effects of YT47R and YT41R on FKBP12 abundance in HEK293T cells co-expressing HA-FBKP12 and FLAG-DCAF1. Data are mean values±SEM for four independent experiments. Statistical significance was calculated with unpaired two-tailed Student's t-tests comparing YT41R/YT47R- and DMSO-treated cells. *P<0.1, **P<0.01, ***P<0.001, ****P<0.0001.
Figure S4. Time-dependent degradation of FKBP12 by DCAF1-directed electrophilic PROTACs. Top, western blots showing time-dependent effects of YT47R and YT41R (2 μM each) on FKBP12 abundance in HEK293T cells co-expressing HA-FBKP12 and FLAG-DCAF1. Data are mean values±SEM for four independent experiments. Statistical significance was calculated with unpaired two-tailed Student's t-tests comparing YT41R/YT47R- and DMSO-treated cells. ****P<0.0001.
We next treated HEK293T cells co-transfected with FLAG epitope-tagged full length DCAF1 (a.a.'s 1-1507) and HA (hemagglutinin) epitope-tagged FKBP12 with a concentration range of YT41R or YT47R and, after 24 h, measured HA-FKBP12 abundance by Western blotting.

[1] = molecular target: T3, recombinant DCAF1-WT (a.a.'s 1046-1396) (Homo sapiens, UniProt Q9Y4B6); assay: gel-ABPP with recombinant purified DCAF1-WT doped into HEK293T cell proteome; type: binding
T3 construct: form of DCAF1 containing the WD40 domain (amino acids (a.a.'s) 1046-1396); made in house
Description: FIG. 2 that azetidine acrylamides stereo- and site-selectively engage recombinant DCAF1_C1113. (A) Domain map of DCAF1 with the region used for recombinant protein studies marked in a bracket (a.a.'s 1046-1396) and C1113 highlighted in red. (B) Crystal structure of a DCAF1-Vpx complex (pdb: 5AJA). DCAF1 (a.a.'s 1046-1396) is shown in cyan, Vpx is shown in yellow, and C1113, which is located at the DCAF1-Vpx interface is shown in red. (C) Structures of alkyne-modified azetidine acrylamides MY-11A (5) and MY-11B (6). (D) Gel-ABPP showing the concentration-dependent reactivity of MY-11A and MY-11B (1 h) reactivity with recombinant, purified DCAF1-WT or the DCAF1-C1113A mutant (0.06 μg/μL of DCAF1 protein per sample) doped into HEK293T cell proteome (1 μg/μL). MY-11A/B labeling of proteins was visualized by CuAAC conjugation to an azide-rhodamine tag followed by SDS-PAGE and in-gel fluorescence scanning. Results are from a single experiment representative of two independent experiments. (E) Gel-ABPP showing the concentration-dependent effects of MY-1A and MY-1B on MY-11B reactivity with DCAF1-WT. Samples were treated with MY-1A/B for 2 h, followed by MY-11B (25 μM, 1 h) and analyzed as described in (D). Left, quantification of data presented as mean values±SEM from two independent experiments. Right, representative gel-ABPP results. (D, E) Lower images are Coomassie blue-stained gels corresponding to ABPP gels shown in upper images.
(A) Structures of candidate electrophilic PROTACs YT41R (7), YT41S (8), YT47R (9), and YT47S (10). (B) Gel-ABPP showing the concentration-dependent effects of YT41R and YT47R on MY-11B reactivity with DCAF1-WT protein (0.06 μg/μL of DCAF1 protein per sample) doped into HEK293T cell proteome (1 μg/μL). Also shown are the effects of YT41S and YT47S tested at a single concentration (100 μM). Samples were treated with heterobifunctional compounds for 2 h, followed by MY-11B (25 μM, 1 h) and analyzed as described in FIG. 2D. Left, representative gel-ABPP results. Lower image is Coomassie blue-stained gel corresponding to ABPP gel shown in upper image. Right, quantification of data presented as mean values±SEM from two independent experiments.
DCAF1 is a multi-domain substrate receptor for CRL4 ligases (FIG. 2A) that has diverse physiological and disease functions, including being co-opted by the HIV-2 virus to promote degradation of the antiviral host protein SAMHD1^27-28. […] We verified the stereo- and site-selective engagement of DCAF1_C1113 by azetidine acrylamides using alkynylated analogues of MY-1A and MY-1B (MY-11A (5) and MY-11B (6), respectively; FIG. 2C). For these experiments, we doped into HEK293T cell lysates a recombinantly expressed and purified form of DCAF1 containing the WD40 domain (amino acids (a.a.'s) 1046-1396), in complex with the CRL4 adaptor protein DDB1^31, and exposed these samples to varying concentrations of MY-11A or MY-11B. After 1 h, we assessed MY-11A and MY-11B engagement of DCAF1 by copper-catalyzed azide-alkyne cycloaddition (CuAAC)^32 with an azide-rhodamine reporter tag followed by SDS-PAGE and in-gel fluorescence scanning^33. […] We used gel-ABPP to quantify an in vitro target engagement value (TE50) of approximately 25 μM (95% C.I.=13-38 μM) for MY-1B labeling of DCAF1 (FIG. 2E, left).

[2] = system: ternary complex of FKBP12 and DCAF1; assay: co-immunoprecipitation of DCAF1 with HA-FKBP12 in HEK293T cells (ternary complex); type: cell-based; settings: FLAG-DCAF1-WT, 5 μM, 2 h, in the presence of MG132 (10 μM)
Experimental: (A) Left, western blots showing effects of YT47R and YT47S on the immunoprecipitation (IP) of FLAG-DCAF1-WT or FLAG-DCAF1-C1113A with HA-FKBP12 in HEK293T cells co-expressing these proteins. Cells were treated with YT47R or YT47S (5 μM) for 2 h in the presence of MG132 (10 μM) prior to lysis and IP with an anti-HA antibody and western blotting for the indicated proteins (DCAF1, FKBP12, and ubiquitinated protein). Right, bar graphs quantifying DCAF1 (top) and ubiquitination (Ub) (bottom) in the indicated IP groups. (B) Left, western blots showing effects of YT47R and YT47S on the IP of endogenous DCAF1 with HA-FKBP12 in HEK293T cells expressing HA-FKBP12. Cells were treated with YT47R or YT47S (5 μM) for 2 h in the presence of MG132 (10 μM) prior to lysis and IP with an anti-HA antibody and western blotting for the indicated proteins (DCAF1, FKBP12). Right, bar graph quantifying DCAF1 in the indicated IP groups. For (A, B), data are mean values±SEM for three independent experiments. Statistical significance was calculated with unpaired two-tailed Student's t-tests comparing YT41R/YT47R- and DMSO-treated cells. **P<0.01, ****P<0.0001. (C) MS-ABPP quantification of IA-DTB labeling of the indicated cysteines in DCAF1 from FLAG-DCAF1-WT-expressing HEK293T cells treated with the indicated concentrations of YT47R (3 h) relative to cells treated with DMSO. Data represent average values±SEM from four independent experiments. Statistical significance was calculated with unpaired two-tailed Student's t-tests comparing compound to DMSO treated cells. *P<0.1.
Finally, we investigated whether electrophilic PROTACs induce a stable ternary complex of FKBP12 with DCAF1 and promote FKBP12 ubiquitination. […] A ternary complex was not observed in cells expressing the DCAF1-C1113A mutant (FIG. 6A), supporting that YT47R induces this complex through site-specifically reacting with C1113. […] In considering possible reasons why this ternary complex formation with endogenous DCAF1 was insufficient to support the degradation of recombinantly expressed FKBP12 (FIG. 4A), we speculate that our current PROTACs (YT41R, YT47R) may require further improvements in cellular properties to enable robust targeted protein degradation mediated by physiological concentrations of DCAF1.

T3 sequence (Q9Y4B6 1046-1396): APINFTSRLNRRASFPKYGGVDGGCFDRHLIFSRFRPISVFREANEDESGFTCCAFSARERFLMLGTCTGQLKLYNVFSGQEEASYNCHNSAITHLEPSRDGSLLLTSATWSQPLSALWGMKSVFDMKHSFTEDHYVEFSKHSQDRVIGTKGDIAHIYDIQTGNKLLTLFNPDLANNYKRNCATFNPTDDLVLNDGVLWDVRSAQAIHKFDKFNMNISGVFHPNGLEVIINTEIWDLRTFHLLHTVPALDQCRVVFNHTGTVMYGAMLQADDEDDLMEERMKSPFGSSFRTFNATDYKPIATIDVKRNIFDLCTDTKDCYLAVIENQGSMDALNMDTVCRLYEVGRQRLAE
T3 sequence (Q16531 whole entry partner, the tested form may be a part): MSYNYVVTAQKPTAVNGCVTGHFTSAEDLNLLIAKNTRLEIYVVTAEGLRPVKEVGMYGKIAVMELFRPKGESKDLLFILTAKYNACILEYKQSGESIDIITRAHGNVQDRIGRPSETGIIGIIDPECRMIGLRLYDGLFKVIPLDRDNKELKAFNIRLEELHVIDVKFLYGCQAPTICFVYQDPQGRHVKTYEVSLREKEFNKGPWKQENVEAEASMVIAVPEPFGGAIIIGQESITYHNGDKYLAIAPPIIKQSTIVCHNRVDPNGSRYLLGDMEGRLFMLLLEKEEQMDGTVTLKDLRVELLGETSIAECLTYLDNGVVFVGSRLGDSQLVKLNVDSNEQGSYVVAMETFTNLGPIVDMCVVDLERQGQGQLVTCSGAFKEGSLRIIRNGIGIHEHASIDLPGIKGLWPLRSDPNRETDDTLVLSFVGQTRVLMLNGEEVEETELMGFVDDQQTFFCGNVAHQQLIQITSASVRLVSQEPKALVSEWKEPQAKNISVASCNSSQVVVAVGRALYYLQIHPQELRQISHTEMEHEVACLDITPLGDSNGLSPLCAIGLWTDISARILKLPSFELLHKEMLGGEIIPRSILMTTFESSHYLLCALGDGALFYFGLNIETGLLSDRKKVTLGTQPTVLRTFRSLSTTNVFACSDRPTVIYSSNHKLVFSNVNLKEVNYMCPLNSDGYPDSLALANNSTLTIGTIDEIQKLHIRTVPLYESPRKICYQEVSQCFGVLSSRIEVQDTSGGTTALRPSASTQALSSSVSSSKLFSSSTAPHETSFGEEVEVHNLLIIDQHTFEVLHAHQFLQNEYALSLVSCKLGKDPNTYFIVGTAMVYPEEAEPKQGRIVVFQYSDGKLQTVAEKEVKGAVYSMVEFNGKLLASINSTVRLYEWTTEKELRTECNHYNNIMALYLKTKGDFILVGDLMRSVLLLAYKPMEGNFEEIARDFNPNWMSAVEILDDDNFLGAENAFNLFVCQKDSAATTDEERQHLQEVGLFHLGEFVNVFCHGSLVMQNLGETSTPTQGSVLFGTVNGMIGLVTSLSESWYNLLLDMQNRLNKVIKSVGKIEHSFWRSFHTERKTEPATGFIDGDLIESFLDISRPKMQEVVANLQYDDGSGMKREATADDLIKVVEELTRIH
T1 sequence (Q9Y4B6 1046-1396 C1113A): as the sequence (Q9Y4B6 1046-1396) above, with C68A counted along it
T1 sequence (Q16531 whole entry partner): as the sequence (Q16531 whole entry partner, the tested form may be a part) above
T2 sequence (P62942 whole entry): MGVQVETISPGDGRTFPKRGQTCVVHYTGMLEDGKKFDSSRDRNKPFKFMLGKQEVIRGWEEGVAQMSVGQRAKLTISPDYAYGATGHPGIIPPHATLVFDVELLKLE

C#Cc1ccc([C@H]2CN(C(=O)C=C)[C@H]2C(=O)Nc2cccc3cccnc23)cc1 [MY-11B, (2R,3S)-1-acryloyl-3-(4-ethynylphenyl)-N-(88uinoline-8-yl) azetidine-2-carboxamide]
labeling of DCAF1-C1113A mutant by alkyne probe (DCAF1-C1113A mutant): blocked by mutation of C1113 to alanine
effect on YT41R/YT47R-mediated degradation of HA-FKBP12 (HA-FKBP12): blocked
labeling of recombinant DCAF1 by alkyne probe ([1]; 1 h, DCAF1-WT, CuAAC azide-rhodamine, in-gel fluorescence): much greater concentration-dependent labeling

C=CC(=O)N1C[C@@H](c2ccc(C(=O)NCCOCCOCCOCCNC(=O)COc3cccc([C@@H](CCc4ccc(OC)c(OC)c4)OC(=O)[C@@H]4CCCCN4C(=O)C(=O)C(C)(C)CC)c3)cc2)[C@H]1C(=O)Nc1cccc2cccnc12 [YT47S]
ternary complex of FKBP12 and DCAF1 [2]: not
inhibition of MY-11B probe reactivity with recombinant DCAF1 ([1]; 2 h, then MY-11B 25 μM 1 h, YT41S and YT47S at single concentration 100 μM): did not impair
